From ChEMBL document CHEMBL1150291, “Discovery of potent, orally bioavailable, selective 5-HT1A/B/D receptor antagonists” (J Med Chem, 2008)
pKi: −log10 of the molar value.

Legend:
[1] = Volume of distribution at steady state in rat at 1 mg/kg, iv; type: ADME, organism-based; parameters: dose 1 mg/kg, route intravenous; conditions: in vivo, read-out: Vdss
[2] = molecular target: T1, 5-hydroxytryptamine receptor 1D (Homo sapiens, UniProt P28221)
[3] = molecular target: T2, 5-hydroxytryptamine receptor 1A (Homo sapiens, UniProt P08908)
T2 sequence (P08908 whole entry): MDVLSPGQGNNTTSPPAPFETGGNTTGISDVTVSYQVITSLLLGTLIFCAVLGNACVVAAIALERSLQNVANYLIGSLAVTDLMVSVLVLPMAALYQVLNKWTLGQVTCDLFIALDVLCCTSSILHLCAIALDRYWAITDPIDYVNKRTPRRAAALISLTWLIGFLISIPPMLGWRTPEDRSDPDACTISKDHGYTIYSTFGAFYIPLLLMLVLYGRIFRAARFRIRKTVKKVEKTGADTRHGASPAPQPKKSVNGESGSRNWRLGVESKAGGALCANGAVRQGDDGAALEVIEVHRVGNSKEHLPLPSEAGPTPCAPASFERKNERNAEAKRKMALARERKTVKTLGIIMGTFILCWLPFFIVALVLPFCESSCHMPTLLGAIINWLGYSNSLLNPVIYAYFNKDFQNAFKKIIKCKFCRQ

[4] = Half life in rat at 1 mg/kg, iv; type: ADME, organism-based; parameters: dose 1 mg/kg, route intravenous; conditions: in vivo
[5] = Clearance in rat at 1 mg/kg, iv; type: ADME, organism-based; parameters: dose 1 mg/kg, route intravenous; conditions: in vivo
[6] = molecular target: T3, 5-hydroxytryptamine receptor 1B (Homo sapiens, UniProt P28222)
T3 sequence (P28222 whole entry): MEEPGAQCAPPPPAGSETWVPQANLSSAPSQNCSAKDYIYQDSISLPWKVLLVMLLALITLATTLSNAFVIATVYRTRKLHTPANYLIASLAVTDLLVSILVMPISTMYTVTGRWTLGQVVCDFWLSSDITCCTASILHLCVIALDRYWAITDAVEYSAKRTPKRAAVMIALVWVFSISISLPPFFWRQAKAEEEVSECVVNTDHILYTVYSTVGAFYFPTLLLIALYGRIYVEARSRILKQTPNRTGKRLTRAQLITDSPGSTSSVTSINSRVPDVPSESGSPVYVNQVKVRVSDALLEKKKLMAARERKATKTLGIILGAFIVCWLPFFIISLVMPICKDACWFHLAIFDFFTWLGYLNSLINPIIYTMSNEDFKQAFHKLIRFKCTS

[7] = molecular target: T3, 5-hydroxytryptamine receptor 1B; assay: Displacement of [3H]5HT from human recombinant 5HT1B receptor relative to control
[8] = Ratio of drug level in brain to blood in rat at 3 mg/kg, po; type: ADME, organism-based; parameters: dose 3 mg/kg, route oral; conditions: read-out: BBR
[9] = molecular target: T1, 5-hydroxytryptamine receptor 1D; assay: Displacement of [3H]5HT from human recombinant 5HT1D receptor relative to control
[10] = molecular target: Sodium-dependent serotonin transporter (Rattus norvegicus, UniProt P31652)
Chain of Sodium-dependent serotonin transporter (Rattus norvegicus, UniProt P31652) (P31652 whole entry): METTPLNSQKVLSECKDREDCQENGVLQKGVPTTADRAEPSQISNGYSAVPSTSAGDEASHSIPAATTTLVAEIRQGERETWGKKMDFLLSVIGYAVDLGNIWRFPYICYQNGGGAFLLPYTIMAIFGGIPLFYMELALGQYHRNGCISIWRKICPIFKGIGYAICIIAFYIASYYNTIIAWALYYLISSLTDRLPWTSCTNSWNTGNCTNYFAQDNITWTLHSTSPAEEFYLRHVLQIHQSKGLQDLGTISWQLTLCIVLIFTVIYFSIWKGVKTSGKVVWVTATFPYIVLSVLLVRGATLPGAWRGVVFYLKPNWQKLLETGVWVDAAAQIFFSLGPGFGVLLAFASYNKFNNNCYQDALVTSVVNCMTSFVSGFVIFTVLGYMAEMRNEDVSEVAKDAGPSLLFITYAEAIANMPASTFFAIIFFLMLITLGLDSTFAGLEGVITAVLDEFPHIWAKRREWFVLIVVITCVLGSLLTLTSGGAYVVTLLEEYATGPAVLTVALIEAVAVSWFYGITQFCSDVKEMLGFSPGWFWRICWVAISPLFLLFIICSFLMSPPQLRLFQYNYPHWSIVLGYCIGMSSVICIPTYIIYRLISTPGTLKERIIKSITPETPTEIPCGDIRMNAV
Description: Inhibition of [3H]5HT uptake at SERT in rat cortical synaptosomes

[11] = Cmax in rat brain at 3 mg/kg, po; type: ADME, organism-based; parameters: dose 3 mg/kg, route oral
D(2) dopamine receptor = D(2) dopamine receptor (Homo sapiens, UniProt P14416)
Chain of D(2) dopamine receptor (P14416 whole entry): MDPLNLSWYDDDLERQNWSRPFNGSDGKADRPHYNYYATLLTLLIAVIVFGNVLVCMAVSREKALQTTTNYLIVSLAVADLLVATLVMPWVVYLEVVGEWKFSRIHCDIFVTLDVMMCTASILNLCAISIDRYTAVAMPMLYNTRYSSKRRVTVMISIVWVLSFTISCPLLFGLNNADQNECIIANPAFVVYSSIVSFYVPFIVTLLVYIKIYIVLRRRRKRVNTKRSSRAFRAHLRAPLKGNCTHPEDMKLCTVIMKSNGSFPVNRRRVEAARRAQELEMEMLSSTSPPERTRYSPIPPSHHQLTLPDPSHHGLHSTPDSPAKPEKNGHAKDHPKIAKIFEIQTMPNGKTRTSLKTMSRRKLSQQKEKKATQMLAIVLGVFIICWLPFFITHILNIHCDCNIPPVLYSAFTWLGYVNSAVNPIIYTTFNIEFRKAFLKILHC
Description: Displacement of radioligand from human cloned dopamine D2 receptor

[12] = molecular target: 5-hydroxytryptamine receptor 1E (Homo sapiens, UniProt P28566); assay: Displacement of radioligand from human cloned 5HT1E receptor
Chain of 5-hydroxytryptamine receptor 1E (P28566 whole entry): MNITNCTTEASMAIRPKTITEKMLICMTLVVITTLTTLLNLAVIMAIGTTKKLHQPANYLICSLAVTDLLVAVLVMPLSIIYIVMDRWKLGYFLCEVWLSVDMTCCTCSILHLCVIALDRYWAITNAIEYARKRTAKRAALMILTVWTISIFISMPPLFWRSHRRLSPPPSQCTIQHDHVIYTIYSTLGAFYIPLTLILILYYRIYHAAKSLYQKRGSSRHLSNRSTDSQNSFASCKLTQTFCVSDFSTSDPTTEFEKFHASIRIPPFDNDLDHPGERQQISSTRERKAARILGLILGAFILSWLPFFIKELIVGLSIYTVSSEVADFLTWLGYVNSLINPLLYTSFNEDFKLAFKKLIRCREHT

Rattus norvegicus = assay: Reversal of SKF-99101-induced increase in seizure threshold in orally dosed rat by electroshock threshold test; type: functional
[13] = molecular target: 5-hydroxytryptamine receptor 4 (Homo sapiens, UniProt Q13639); assay: Displacement of radioligand from human cloned 5HT4 receptor
Chain of 5-hydroxytryptamine receptor 4 (Q13639 whole entry): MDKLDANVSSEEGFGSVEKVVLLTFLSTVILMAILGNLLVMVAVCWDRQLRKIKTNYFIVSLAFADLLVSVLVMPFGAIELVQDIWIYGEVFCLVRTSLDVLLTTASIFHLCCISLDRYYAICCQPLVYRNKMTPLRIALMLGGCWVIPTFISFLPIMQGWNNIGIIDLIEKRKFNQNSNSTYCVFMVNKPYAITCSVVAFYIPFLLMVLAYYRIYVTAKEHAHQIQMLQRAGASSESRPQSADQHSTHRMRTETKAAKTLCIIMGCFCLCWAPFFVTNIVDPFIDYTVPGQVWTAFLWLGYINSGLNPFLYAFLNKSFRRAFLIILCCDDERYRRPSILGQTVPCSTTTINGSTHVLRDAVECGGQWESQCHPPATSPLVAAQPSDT

[14] = molecular target: T4, Alpha-1B adrenergic receptor (Homo sapiens, UniProt P35368); assay: Displacement of radioligand from human cloned adrenergic Alpha-1B receptor
T4 sequence (P35368 whole entry): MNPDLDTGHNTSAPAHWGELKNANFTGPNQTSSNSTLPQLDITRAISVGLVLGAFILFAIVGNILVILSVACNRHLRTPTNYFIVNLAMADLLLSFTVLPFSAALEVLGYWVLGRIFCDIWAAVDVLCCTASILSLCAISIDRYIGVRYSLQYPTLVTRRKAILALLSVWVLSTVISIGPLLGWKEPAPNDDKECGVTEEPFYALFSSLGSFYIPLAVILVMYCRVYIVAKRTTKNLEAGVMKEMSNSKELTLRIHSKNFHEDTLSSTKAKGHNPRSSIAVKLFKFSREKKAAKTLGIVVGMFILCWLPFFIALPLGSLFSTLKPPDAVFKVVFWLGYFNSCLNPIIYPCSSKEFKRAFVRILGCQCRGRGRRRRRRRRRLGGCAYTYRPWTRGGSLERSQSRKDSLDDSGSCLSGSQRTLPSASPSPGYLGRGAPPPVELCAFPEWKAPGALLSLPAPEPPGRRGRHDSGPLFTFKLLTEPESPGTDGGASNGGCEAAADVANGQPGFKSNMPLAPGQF

[15] = molecular target: 5-hydroxytryptamine receptor 7 (Homo sapiens, UniProt P34969); assay: Displacement of radioligand from human cloned 5HT7 receptor
[16] = molecular target: 5-hydroxytryptamine receptor 2B (Homo sapiens, UniProt P41595); assay: Displacement of radioligand from human cloned 5HT2B receptor
Chain of 5-hydroxytryptamine receptor 2B (P41595 whole entry): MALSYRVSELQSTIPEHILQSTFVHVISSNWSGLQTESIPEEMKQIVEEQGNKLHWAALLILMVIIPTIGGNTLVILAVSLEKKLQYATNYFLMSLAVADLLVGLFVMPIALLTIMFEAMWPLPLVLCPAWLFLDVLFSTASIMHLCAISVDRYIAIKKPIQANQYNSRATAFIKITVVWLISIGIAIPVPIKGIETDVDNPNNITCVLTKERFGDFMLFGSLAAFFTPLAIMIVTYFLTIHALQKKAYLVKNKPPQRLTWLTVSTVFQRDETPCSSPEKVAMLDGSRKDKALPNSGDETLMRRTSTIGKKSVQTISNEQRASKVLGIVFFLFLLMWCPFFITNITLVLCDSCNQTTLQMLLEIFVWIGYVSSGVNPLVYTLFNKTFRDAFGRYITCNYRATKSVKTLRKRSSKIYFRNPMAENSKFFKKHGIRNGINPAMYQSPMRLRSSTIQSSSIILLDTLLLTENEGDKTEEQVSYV

[17] = molecular target: T5, 5-hydroxytryptamine receptor 1F (Homo sapiens, UniProt P30939); assay: Displacement of radioligand from human cloned 5HT1F receptor
T5 sequence (P30939 whole entry): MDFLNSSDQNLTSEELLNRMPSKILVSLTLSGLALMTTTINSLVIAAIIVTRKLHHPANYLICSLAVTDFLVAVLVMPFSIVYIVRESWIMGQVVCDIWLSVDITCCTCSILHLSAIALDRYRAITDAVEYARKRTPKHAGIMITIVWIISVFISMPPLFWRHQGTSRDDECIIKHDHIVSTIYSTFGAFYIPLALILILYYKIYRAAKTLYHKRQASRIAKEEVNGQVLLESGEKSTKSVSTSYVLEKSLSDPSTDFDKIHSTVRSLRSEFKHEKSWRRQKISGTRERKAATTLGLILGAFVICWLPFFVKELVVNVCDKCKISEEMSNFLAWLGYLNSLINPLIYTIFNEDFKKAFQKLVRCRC

[18] = molecular target: Sodium-dependent serotonin transporter (Homo sapiens, UniProt P31645); assay: Displacement of radioligand from human cloned SERT
Chain of Sodium-dependent serotonin transporter (Homo sapiens, UniProt P31645) (P31645 whole entry): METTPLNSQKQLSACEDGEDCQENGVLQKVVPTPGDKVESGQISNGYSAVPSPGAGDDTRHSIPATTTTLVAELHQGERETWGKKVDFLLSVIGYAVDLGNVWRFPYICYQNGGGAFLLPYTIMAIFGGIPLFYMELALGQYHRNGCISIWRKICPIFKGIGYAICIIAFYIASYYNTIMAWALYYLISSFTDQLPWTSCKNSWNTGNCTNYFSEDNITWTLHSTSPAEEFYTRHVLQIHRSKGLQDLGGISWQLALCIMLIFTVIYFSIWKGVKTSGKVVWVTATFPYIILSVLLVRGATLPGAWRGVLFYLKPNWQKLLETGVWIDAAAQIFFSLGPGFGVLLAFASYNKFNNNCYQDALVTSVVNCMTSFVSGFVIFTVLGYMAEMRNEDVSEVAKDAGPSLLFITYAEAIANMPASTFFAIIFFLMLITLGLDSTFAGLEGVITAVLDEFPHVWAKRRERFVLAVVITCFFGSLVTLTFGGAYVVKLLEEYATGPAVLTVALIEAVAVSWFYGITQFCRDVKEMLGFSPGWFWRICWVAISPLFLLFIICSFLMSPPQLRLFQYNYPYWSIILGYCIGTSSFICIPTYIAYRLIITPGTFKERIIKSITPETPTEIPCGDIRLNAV

[19] = molecular target: Beta-2 adrenergic receptor (Homo sapiens, UniProt P07550); assay: Displacement of radioligand from human cloned adrenergic beta2 receptor
Chain of Beta-2 adrenergic receptor (P07550 whole entry): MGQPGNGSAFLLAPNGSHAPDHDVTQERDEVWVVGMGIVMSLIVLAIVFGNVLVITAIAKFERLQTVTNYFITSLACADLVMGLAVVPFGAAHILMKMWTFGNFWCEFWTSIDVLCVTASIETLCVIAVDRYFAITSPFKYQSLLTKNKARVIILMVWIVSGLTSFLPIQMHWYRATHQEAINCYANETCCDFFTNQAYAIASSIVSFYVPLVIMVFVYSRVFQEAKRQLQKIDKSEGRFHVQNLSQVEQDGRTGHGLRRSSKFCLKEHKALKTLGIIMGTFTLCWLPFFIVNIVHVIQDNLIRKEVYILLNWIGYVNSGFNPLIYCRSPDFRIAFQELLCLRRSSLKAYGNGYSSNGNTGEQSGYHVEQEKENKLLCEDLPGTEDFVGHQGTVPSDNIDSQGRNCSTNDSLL

[20] = molecular target: 5-hydroxytryptamine receptor 6 (Homo sapiens, UniProt P50406); assay: Displacement of radioligand from human cloned 5HT6 receptor
[21] = molecular target: 5-hydroxytryptamine receptor 5A (Homo sapiens, UniProt P47898)
Chain of 5-hydroxytryptamine receptor 5A (P47898 whole entry): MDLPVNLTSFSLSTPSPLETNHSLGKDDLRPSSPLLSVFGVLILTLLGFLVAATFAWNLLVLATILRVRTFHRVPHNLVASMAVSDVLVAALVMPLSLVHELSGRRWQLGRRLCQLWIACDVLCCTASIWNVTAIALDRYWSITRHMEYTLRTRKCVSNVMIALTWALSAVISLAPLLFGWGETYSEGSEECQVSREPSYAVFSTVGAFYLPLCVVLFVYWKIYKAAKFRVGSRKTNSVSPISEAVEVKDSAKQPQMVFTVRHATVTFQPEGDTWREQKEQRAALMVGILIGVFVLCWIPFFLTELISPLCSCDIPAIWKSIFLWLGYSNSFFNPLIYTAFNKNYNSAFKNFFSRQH
Description: Displacement of radioligand from human cloned 5HT5A receptor

[22] = molecular target: T6, 5-hydroxytryptamine receptor 2C (Homo sapiens, UniProt P28335); assay: Displacement of radioligand from human cloned 5HT2C receptor
T6 sequence (P28335 whole entry): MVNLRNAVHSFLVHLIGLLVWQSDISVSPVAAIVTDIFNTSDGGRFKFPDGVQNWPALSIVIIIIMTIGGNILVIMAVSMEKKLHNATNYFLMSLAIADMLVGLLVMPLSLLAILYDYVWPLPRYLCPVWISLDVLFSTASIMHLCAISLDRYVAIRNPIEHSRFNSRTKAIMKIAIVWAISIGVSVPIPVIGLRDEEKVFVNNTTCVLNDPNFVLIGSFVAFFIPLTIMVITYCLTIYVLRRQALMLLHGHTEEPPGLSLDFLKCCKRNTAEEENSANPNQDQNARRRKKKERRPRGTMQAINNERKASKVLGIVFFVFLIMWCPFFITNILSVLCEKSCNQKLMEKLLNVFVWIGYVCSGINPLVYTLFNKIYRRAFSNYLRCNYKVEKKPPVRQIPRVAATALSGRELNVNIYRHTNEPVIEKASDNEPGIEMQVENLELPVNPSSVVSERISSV

[23] = molecular target: 5-hydroxytryptamine receptor 2A (Homo sapiens, UniProt P28223); assay: Displacement of radioligand from human cloned 5HT2A receptor
Chain of 5-hydroxytryptamine receptor 2A (P28223 whole entry): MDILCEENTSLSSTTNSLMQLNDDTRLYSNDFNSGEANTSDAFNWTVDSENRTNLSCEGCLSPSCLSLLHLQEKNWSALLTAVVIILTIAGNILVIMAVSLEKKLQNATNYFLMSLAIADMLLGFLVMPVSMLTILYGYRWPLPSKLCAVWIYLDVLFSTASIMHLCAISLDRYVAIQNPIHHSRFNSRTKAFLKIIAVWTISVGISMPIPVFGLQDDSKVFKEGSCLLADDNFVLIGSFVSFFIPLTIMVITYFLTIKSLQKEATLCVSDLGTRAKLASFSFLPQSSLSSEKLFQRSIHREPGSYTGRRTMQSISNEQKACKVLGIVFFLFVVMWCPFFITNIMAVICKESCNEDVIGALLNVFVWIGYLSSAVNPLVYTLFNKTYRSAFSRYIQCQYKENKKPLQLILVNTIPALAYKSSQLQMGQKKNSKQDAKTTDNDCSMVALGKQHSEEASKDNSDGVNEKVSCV

[24] = molecular target: T2, 5-hydroxytryptamine receptor 1A; remark: listed apart in the source

T1 sequence (P28221 whole entry): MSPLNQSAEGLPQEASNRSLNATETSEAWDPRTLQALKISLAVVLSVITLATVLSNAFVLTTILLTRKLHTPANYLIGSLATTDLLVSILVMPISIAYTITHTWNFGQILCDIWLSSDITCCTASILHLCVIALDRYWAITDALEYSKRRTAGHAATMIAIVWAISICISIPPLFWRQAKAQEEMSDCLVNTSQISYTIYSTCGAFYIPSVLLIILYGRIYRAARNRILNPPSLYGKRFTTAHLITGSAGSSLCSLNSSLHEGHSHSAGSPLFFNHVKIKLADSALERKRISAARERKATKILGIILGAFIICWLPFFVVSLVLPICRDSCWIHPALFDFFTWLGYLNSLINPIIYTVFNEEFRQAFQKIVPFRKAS

Row | Compound | Vd [1] | pKi [2] | pKi [3] | half-life [4] | clearance [5] | pKi [6] | Intrinsic activity [7] | Intrinsic activity [9] | pKi [10] | Cmax [11] | also measured
1 | Cc1ccc2c(OCCN3CCC(Cc4cccc(N5CCCC5=O)c4)CC3)cccc2n1 | 1.5 L/kg | 8.70 | 8.20 | 78 min | 35 mL/min/kg | 7.70 | 0.4 | 0.5 | 6.70 | 410 ng/g | Kp [8]: 1.2
2 | Cc1ccc2c(OCCN3CCC(Cc4cccc(N(C)S(C)(=O)=O)c4)CC3)cccc2n1 |  | 8.80 | 7.90 |  |  | 7.90 | 0 | 0.5 | 6.00 |  | 
3 | CC(=O)Nc1ccccc1CN1CCN(CCOc2cccc3nc(C)ccc23)CC1 |  | 8.30 | 5.90 |  |  | 5.80 |  |  | 5.00 |  | 
4 | CC(=O)N(C)c1cccc(CC2CCN(CCOc3cccc4nc(C)ccc34)CC2)c1 | 2.2 L/kg | 8.90 | 7.60 | 72 min | 37 mL/min/kg | 7.40 | 0.3 | 0.6 | 7.10 | 190 ng/g | 
5 | Cc1ccc2c(OCCN3CCC(Cc4cccc(NC(=O)CN(C)C)c4)CC3)cccc2n1 |  | 9.00 | 7.80 |  |  | 8.20 | 0.2 | 0.4 | 6.40 |  | 
6 | CCC(=O)Nc1cccc(CC2CCN(CCOc3cccc4nc(C)ccc34)CC2)c1 |  | 9.20 | 7.60 |  |  | 7.80 | 0.3 | 0.3 | 6.10 |  | 
7 | Cc1ccc2c(OCCN3CCC(Cc4cccc(NS(C)(=O)=O)c4)CC3)cccc2n1 | 1.6 L/kg | 9.30 | 8.60 | 36 min | 38 mL/min/kg | 8.70 | 0.3 |  | 6.00 | 346 ng/g | pKi (D(2) dopamine receptor): 7.20; pKi [12]: 5.60; Activity (Rattus norvegicus): Dose-dependent effect; pKi [13]: < 5.00; pKi [14]: 6.70; pKi [15]: 7.70; pKi [16]: 5.70; pKi [17]: 6.30; pKi [18]: 5.80; pKi [19]: 6.30; Kp [8]: 0.2; pKi [20]: < 5.00; pKi [21]: 5.90; pKi [22]: < 6.00; pKi [23]: 5.60
8 | CC(=O)N(C)c1cccc(CN2CCN(CCOc3cccc4nc(C)ccc34)CC2)c1 |  | 9.50 | 6.60 |  |  | 7.30 |  |  | 6.00 |  | 
9 | COc1cccc(CN2CCN(CCOc3cccc4nc(C)ccc34)CC2)c1 |  | 8.60 |  |  |  | 6.80 |  |  | 6.20 |  | pKi [24]: 7.90
10 | COc1ccc(CN2CCN(CCOc3cccc4nc(C)ccc34)CC2)cc1 |  | 7.90 | 7.30 |  |  | 6.30 |  |  | 6.40 |  | pKi [24]: 8.30
11 | CCN(C(C)=O)c1cccc(CC2CCN(CCOc3cccc4nc(C)ccc34)CC2)c1 | 1.9 L/kg | 8.80 | 8.30 | 66 min | 34 mL/min/kg | 7.00 | 0.3 | 0.6 | 6.10 | 234 ng/g | 
12 | Cc1ccc2c(OCCN3CCC(Cc4cccc(N5CCCS5(=O)=O)c4)CC3)cccc2n1 | 0.9 L/kg | 8.80 | 8.10 | 54 min | 39 mL/min/kg | 7.90 | 0.5 | 0.4 | 6.10 | 287 ng/g | pKi (D(2) dopamine receptor): 6.30; pKi [12]: < 5.00; pKi [13]: 5.10; pKi [14]: 6.80; pKi [15]: 7.80; pKi [16]: < 6.00; pKi [17]: 6.00; pKi [18]: 6.40; pKi [19]: 5.80; Kp [8]: 0.9; pKi [20]: 5.80; pKi [21]: 5.80; pKi [22]: < 5.40; pKi [23]: < 5.20
13 | Cc1nc(-c2ccc(-c3ccc(C(=O)N4CCc5cc6c(cc54)C4(CCN(C)CC4)CO6)cc3)c(C)c2)no1 [SB-224289] |  |  |  |  |  |  |  |  |  |  | ED50 (Rattus norvegicus; po): 1 mg/kg
14 | COc1ccc(CC2CCN(CCOc3cccc4nc(C)ccc34)CC2)cc1NS(C)(=O)=O |  | 8.20 | 6.90 |  |  | 7.40 |  |  | 6.20 |  | 
15 | CCNC(=O)Nc1cccc(CC2CCN(CCOc3cccc4nc(C)ccc34)CC2)c1 |  | 9.60 | 7.50 |  |  | 7.60 | 0.2 | 0.3 | 6.60 |  | 
16 | CC(=O)Nc1ccc(CN2CCN(CCOc3cccc4nc(C)ccc34)CC2)cc1 |  | 6.70 |  |  |  | 5.90 |  |  | 5.80 |  | pKi [24]: 6.80
17 | CC(=O)Nc1cccc(CC2CCN(CCOc3cccc4nc(C)ccc34)CC2)c1 | 1.2 L/kg | 9.30 | 7.60 | 36 min | 47 mL/min/kg | 7.70 | 0.3 | 0.5 | 6.30 | 221 ng/g | Kp [8]: 1.1
18 | CC(=O)Nc1cccc(CN2CCN(CCOc3cccc4nc(C)ccc34)CC2)c1 |  | 9.30 | 6.70 |  |  | 7.70 |  |  | 5.90 |  | pKi [24]: 8.70
19 | Cc1ccc2c(OCCN3CCN(Cc4ccccc4)CC3)cccc2n1 |  | 9.00 | 6.70 |  |  | 6.60 |  |  | 6.10 |  | pKi [24]: 7.60
20 | Cc1ccc2c(OCCN3CCC(Cc4cccc(NC(=O)C(C)C)c4)CC3)cccc2n1 | 1.8 L/kg | 8.90 | 8.20 | 54 min | 45 mL/min/kg | 7.30 | 0.3 | 0.4 | 6.30 | 175 ng/g | Kp [8]: 2.3
21 | Cc1ccc2c(OCCN3CCC(Cc4cccc(NS(=O)(=O)C(C)C)c4)CC3)cccc2n1 |  | 9.40 | 8.60 |  |  | 8.90 | 0.3 | 0.4 | 6.40 |  | 
